In ChEMBL document CHEMBL4038348 (J Med Chem, 2017):

Experiment: physchem
Details: octanol/water, pH 7.4
Description: 1-octanol/aqueous buffer solution partition coefficient, log D of the compound at pH 7.4 by UV-HPLC method

Row | logD | SMILES
1 | 3.13 | CCC(NC(=O)N1CC(=O)Nc2cccnc21)c1ccc(N2CCC2)cc1 (configuration not stated)
2 | 3.03 | COCC(NC(=O)N1CC(=O)Nc2cc(OC)cnc21)c1ccc(C(F)(F)F)cc1 (stereo in doubt; 34)
